Values quoted from earlier work in patent US20050009782A1, “Antiviral charged polymers that exhibit resistance to lysosomal degradation during kidney filtration and renal passage, compositions and methods of use thereof” (priority 2003, published 2005).

Key:
HIV [1] = details: for inhibition of HIV replication: in vitro; for inhibition of HIV replication / inhibition of HIV in vitro: reported in literature; for In vitro activity: listed virus = activity demonstrated
HSV = details: for In vitro activity: listed virus = activity demonstrated; for inhibition of herpes simplex viruses in vitro: reported in literature
RLV = details: listed virus = activity demonstrated
HSV-1 = details: listed virus = activity demonstrated
HSV-2 = details: listed virus = activity demonstrated
semlikiviruses = details: reported in literature
CMV = details: for inhibition of cytomegaloviruses in vitro: reported in literature; for In vitro activity: listed virus = activity demonstrated
Chlamydia = details: listed organism = activity demonstrated
paramyxoviruses = details: reported in literature
HIV [2] = test system: HIV
HIV-1 = details: listed virus = activity demonstrated
measles = details: listed virus = activity demonstrated
mumps = details: listed virus = activity demonstrated
Denge virus = details: listed virus = activity demonstrated
MLV = details: listed virus = activity demonstrated
HHV-7 = details: listed virus = activity demonstrated

## kappa-carrageenan
HIV [1]
  inhibition of HIV replication: inhibit HIV replication

## Polyinosinic-polycytidylic acid
HIV [1]
  In vitro activity: HIV

## CCCCCCCCCCCCOS(=O)(=O)[O-].[Na+] [Sodium lauryl sulfate]
HIV [1]
  In vitro activity: HIV
HSV
  In vitro activity: HSV

## Polyacetal polysulfate
HIV [1]
  In vitro activity: HIV

## N-carboxymethylchitosan-N,O-sulfate
RLV
  In vitro activity: RLV
HIV [1]
  In vitro activity: HIV

## O=S(=O)(O)OC1C(OS(=O)(=O)O)C(OS(=O)(=O)O)C(OS(=O)(=O)O)C(OS(=O)(=O)O)C1OS(=O)(=O)O (stereo not drawn) [Inositol hexasulfate]
HIV [1]
  In vitro activity: HIV

## Xylomannan sulfate
HSV-1
  In vitro activity: HSV-1
HIV [1]
  In vitro activity: HIV
HSV-2
  In vitro activity: HSV-2

## dextrin sulfate
HIV [1]
  inhibition of HIV replication: inhibit HIV replication

## N[C@H]1C(O)O[C@H](COS(=O)(=O)O)[C@@H](O)[C@@H]1O (stereo partly drawn) [Glucosamine-6-sulfate (monosaccharide), Glucosamine-6-sulfate]
HIV [1]
  In vitro activity: HIV

## Galactan sulfate
HSV-1
  In vitro activity: HSV-1
HIV [1]
  In vitro activity: HIV

## sulfated cyclodextrins
HIV [1]
  inhibition of HIV replication: inhibit HIV replication

## Sulfated octadecyl maltohexaoside
HIV [1]
  In vitro activity: HIV

## Pentosan polysulfate
semlikiviruses
  inhibition of semlikiviruses in vitro: potent inhibitors
CMV
  inhibition of cytomegaloviruses in vitro: potent inhibitors
HIV [1]
  inhibition of HIV replication: inhibit HIV replication
  In vitro activity: HIV
  inhibition of HIV in vitro: potent inhibitors
Influenza viruses
  inhibition of influenza viruses in vitro: potent inhibitors
HSV
  inhibition of herpes simplex viruses in vitro: potent inhibitors
Chlamydia
  In vitro activity: Chlamydia
paramyxoviruses
  inhibition of paramyxoviruses in vitro: potent inhibitors

## dextran sulfate
semlikiviruses
  inhibition of semlikiviruses in vitro: potent inhibitors
CMV
  inhibition of cytomegaloviruses in vitro: potent inhibitors
HIV [2]; commercial dextran sulfate
  activity against HIV in vivo: poor activity
HIV [2]; continuous infusion, subjects with symptomatic HIV infection, up to 14 days
  beneficial effect in vivo: lack of any demonstration of beneficial effect in vivo
Continuous infusion to maximally tolerated dose, subjects with symptomatic HIV infection, up to 14 days
  toxicity of continuous intravenous infusion: toxic
Mammals and HIV patients
  toxicity in mammals and HIV patients: significant toxicity
HIV [1]
  inhibition of HIV replication: inhibit HIV replication
  inhibition of HIV in vitro: potent inhibitors
Influenza viruses
  inhibition of influenza viruses in vitro: potent inhibitors
HSV
  inhibition of herpes simplex viruses in vitro: potent inhibitors
paramyxoviruses
  inhibition of paramyxoviruses in vitro: potent inhibitors

## Mannan sulfate
HIV [1]
  inhibition of HIV replication: inhibit HIV replication
  In vitro activity: HIV

## Sulfated xylogalactans
HIV-1
  In vitro activity: HIV-1

## Rhamnan sulfate
HSV-1
  In vitro activity: HSV-1
CMV
  In vitro activity: CMV
HIV [1]
  In vitro activity: HIV

## Prunellin
HIV [1]
  In vitro activity: HIV

## Sulfoevernan
HIV [1]
  inhibition of HIV replication: inhibit HIV replication
  In vitro activity: HIV

## Achranthese bidentata polysaccharide sulfate
HSV-1
  In vitro activity: HSV-1

## Sulfated N-deacetylatedchitin
HSV
  In vitro activity: HSV

## Sulfate dodecyl laminarapentaoside
HIV [1]
  In vitro activity: HIV

## Curdlan sulfate
CMV
  In vitro activity: CMV
HIV [1]
  In vitro activity: HIV

## 3′ sulfogalactosylceramide [Sulfatide (3′ sulfogalactosylceramide)]
HIV [1]
  In vitro activity: HIV

## Glycyrrhizin sulfate
HIV [1]
  In vitro activity: HIV

## lambda-carrageenan
HIV [1]
  inhibition of HIV replication: inhibit HIV replication

## (14)-2-deoxy-2-sulfamido-3-O-sulfo-(14)-beta-D-glycopyranan
HIV [1]
  In vitro activity: HIV

## Calcium spirulan
HSV-1
  In vitro activity: HSV-1
CMV
  In vitro activity: CMV
HIV [1]
  In vitro activity: HIV
measles
  In vitro activity: measles
mumps
  In vitro activity: mumps

## Sulfated octadecyl ribofurnans
HIV [1]
  In vitro activity: HIV

## 2-acetamido-2-deoxy-3-O-sulfo(14)-beta-D-glycopyranan
HIV [1]
  In vitro activity: HIV

## Carboxymethylchitin
HSV
  In vitro activity: HSV

## Ribofuranan sulfate
HIV [1]
  In vitro activity: HIV

## Heparin
ASFV
  In vitro activity: ASFV, Denge
Denge virus
  In vitro activity: ASFV, Denge
semlikiviruses
  inhibition of semlikiviruses in vitro: potent inhibitors
CMV
  inhibition of cytomegaloviruses in vitro: potent inhibitors
HIV [1]
  inhibition of HIV replication: inhibit HIV replication
  In vitro activity: HIV
  inhibition of HIV in vitro: potent inhibitors
Influenza viruses
  inhibition of influenza viruses in vitro: potent inhibitors
HSV
  inhibition of herpes simplex viruses in vitro: potent inhibitors
MLV
  In vitro activity: virus, MLV
HHV-7
  In vitro activity: HHV-7
paramyxoviruses
  inhibition of paramyxoviruses in vitro: potent inhibitors

## Lentinan sulfate
HIV [1]
  inhibition of HIV replication: inhibit HIV replication
  In vitro activity: HIV

## Chondroitin polysulfate
HIV [1]
  In vitro activity: HIV

## iota-carrageenan
HIV [1]
  inhibition of HIV replication: inhibit HIV replication

## Fucoidin
HIV [1]
  inhibition of HIV replication: inhibit HIV replication
  In vitro activity: HIV
Chlamydia
  In vitro activity: Chlamydia

B1: Cyanovirin-N (from cyanobacterium): Cyanovirin-N from cyanobacterium (protein, UniProt P81180 1-101, looked up)
Cyanovirin-N: LGKFSQTCYNSAIQGSVLTSTCERTNGGYNTSSIDLNSVIENVDGSLKWQPSNFIETCRNTQLAGSSELAAECKTRAQQFVSTKINLDDHIANIDGTLKYE
HIV [1]
  In vitro activity: HIV
